# Experimental data reported in patent US20060069132A1, “Azolecarboxamide herbicides” (priority 2004, published 2006).
# What was measured:
# wheat = experiment: Test B postemergence herbicide test; format: in vivo, Triticum aestivum; set-up: key to Wheat plant response rating: 0 = no effect, 100 = complete control; conditions: postemergence
# Method in brief: (§1)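 Treated at 2-leaf (paddy) or 1–4-leaf, 2–18 cm (postemergence); greenhouse 13–15 d; visual score vs control, 0 none to 100 complete control; dash = not tested.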
# [1] = tested on: small flower umbrella sedge; experiment: Test B flooded paddy test; format: in vivo, Cyperus difformis; conditions: 1000 g ai/ha, scale 0 to 100 (0 no effect, 100 complete control)
# Method in brief: as §1
# large crabgrass = experiment: Test B pre-/postemergence herbicide test; format: in vivo, Digitaria sanguinalis; conditions: for Crabgrass, Large plant response rating: postemergence
# Method in brief: (§2)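 Test chemicals in a non-phytotoxic solvent mixture with surfactant were applied preemergence to seeded species and postemergence to plants 2-18 cm tall (1- to 4-leaf stage); rice and barnyardgrass were also tested in a flooded paddy at the 2-leaf stage. Visual rating versus controls after 13-15 days in greenhouse, scale 0 (no effect) to 100 (complete control).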
# pigweed = experiment: Test B pre-/postemergence herbicide test; format: in vivo, Amaranthus retroflexus; conditions: for Pigweed plant response rating: postemergence
# Method in brief: as §2
# velvetleaf = experiment: Test B pre-/postemergence herbicide test; format: in vivo, Abutilon theophrasti; conditions: for Velvetleaf plant response rating: postemergence
# Method in brief: as §2
# barnyardgrass [2] = experiment: Test B pre-/postemergence herbicide test; format: in vivo, Echinochloa crus-galli; conditions: for Barnyardgrass plant response rating: postemergence, scale 0 (no effect) to 100 (complete control)
# Method in brief: (§3)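 Herbicidal effect was judged by eye on a 0–100 scale after plants stood 13 to 15 days in the greenhouse following pre- or postemergence treatment with surfactant-containing formulations.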
# lambsquarters = experiment: Test B pre-/postemergence herbicide test; format: in vivo, Chenopodium album; conditions: for Lambsquarters plant response rating: postemergence
# Method in brief: as §2
# Surinam grass = experiment: Test B pre-/postemergence herbicide test; format: in vivo, Urochloa decumbens; conditions: for Surinam Grass plant response rating: postemergence
# Method in brief: as §2
# blackgrass = experiment: Test B postemergence herbicide test; format: in vivo, Alopecurus myosuroides; conditions: postemergence, visual rating, scale 0 (no effect) to 100 (complete control)
# Method in brief: as §1
# corn = experiment: Test B pre-/postemergence herbicide test; format: in vivo, Zea mays; conditions: for Corn plant response rating: postemergence
# Method in brief: as §2
# giant foxtail = experiment: Test B pre-/postemergence herbicide test; format: in vivo, Setaria faberi; conditions: for Foxtail, Giant plant response rating: postemergence
# Method in brief: as §2
# morningglory = experiment: Test B pre-/postemergence herbicide test; format: in vivo, Ipomoea coccinea; conditions: for Morningglory plant response rating: postemergence
# Method in brief: as §3
# barnyardgrass [3] = experiment: Test C flooded paddy test; format: in vivo, Echinochloa crus-galli
# Method in brief: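 After a postemergence application at 1 to 4 leaves (plants 2–18 cm high), or at 2 leaves for barnyardgrass in flooded paddy, plants stayed in the greenhouse for 12 to 14 days. Damage was then judged visually relative to control plants, with 100 indicating complete control.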
# cocklebur = experiment: Test B pre-/postemergence herbicide test; format: in vivo, Xanthium strumarium; conditions: postemergence, visual rating, scale 0 (no effect) to 100 (complete control)
# Method in brief: as §3
# [4] = tested on: smallflower umbrella sedge; experiment: Test C flooded paddy test; format: in vivo, Cyperus difformis
# ducksalad [5] = experiment: Test B flooded paddy test; format: in vivo, Heteranthera limosa; conditions: 1000 g ai/ha, scale 0 to 100 (0 no effect, 100 complete control)
# Method in brief: as §1
# rice [6] = experiment: Test B pre-/postemergence herbicide test; format: in vivo, Oryza sativa; conditions: 0 = no effect, 100 = complete control, preemergence
# Method in brief: as §2
# ducksalad [7] = experiment: Test C flooded paddy test; format: in vivo, Heteranthera limosa
# barnyardgrass [8] = experiment: Test B flooded paddy test; format: in vivo, Echinochloa crus-galli; conditions: 1000 g ai/ha, scale 0 to 100 (0 no effect, 100 complete control)
# Method in brief: as §1
# rice [9] = experiment: Test B flooded paddy test; format: in vivo, Oryza sativa; conditions: 1000 g ai/ha, scale 0 to 100 (0 no effect, 100 complete control)
# Method in brief: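 Paddy species grown to the 2-leaf stage under flooding; blackgrass sprayed postemergence at 2–18 cm (1- to 4-leaf stage). Plants kept in a greenhouse for 13 to 15 days, then visually rated against controls on 0 (no effect) to 100 (complete control).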
# rice [10] = experiment: Test C flooded paddy test; format: in vivo, Oryza sativa
# Method in brief: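 Plants were grown to the 1- to 4-leaf stage (2–18 cm) and then treated postemergence, or grown to the 2-leaf stage for the flooded paddy test. They were held in a greenhouse for 12 to 14 days and then scored by eye against controls, where 0 is no effect and 100 is complete control.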
# wild oat = experiment: Test B postemergence herbicide test; format: in vivo, Avena fatua; conditions: postemergence
# Method in brief: as §1
# [11] = 125 g ai/ha, visual rating, scale 0 (no effect) to 100 (complete control)
# [12] = 500 g ai/ha, scale 0 to 100, 0 is no effect, 100 is complete control
# [13] = 125 g ai/ha, 0 = no effect, 100 = complete control, preemergence
# [14] = 500 g ai/ha, visual rating, 0 = no effect, 100 = complete control, preemergence
# [15] = 125 g ai/ha, scale 0 to 100 (0 no effect, 100 complete control)
# [16] = 250 g ai/ha, scale of 0 to 100, 0 is no effect, 100 is complete control
# [17] = 500 g ai/ha, visual rating after 12 to 14 days, scale 0 to 100 (0 no effect, 100 complete control)
structure (smiles),measurement,setting,value
CCN(C)C(=O)c1cncc(NC(=O)c2cc(C(C)(C)C)nn2CC)c1 [Compound 263],Wheat plant response rating,wheat; [11],10
same,Wheat plant response rating,wheat; [12],20
same,"Sedge, Umbrella plant response rating",[1],80
same,"Crabgrass, Large plant response rating (0 to 100 scale)",large crabgrass; [13],10
same,"Plant response rating, Crabgrass, Large",large crabgrass; [14],60
same,"Crabgrass, Large plant response rating",large crabgrass; [11],10
same,"Crabgrass, Large plant response rating",large crabgrass; [12],20
same,Pigweed plant response rating (0 to 100 scale),pigweed; [13],80
same,"Plant response rating, Pigweed",pigweed; [14],100
same,Pigweed plant response rating,pigweed; [11],60
same,Pigweed plant response rating,pigweed; [12],90
same,Velvetleaf plant response rating (0 to 100 scale),velvetleaf; [13],10
same,"Plant response rating, Velvetleaf",velvetleaf; [14],90
same,Velvetleaf plant response rating,velvetleaf; [11],20
same,Velvetleaf plant response rating,velvetleaf; [12],20
same,Barnyardgrass plant response rating (0 to 100 scale),barnyardgrass [2]; [13],10
same,"Plant response rating, Barnyardgrass",barnyardgrass [2]; [14],40
same,Barnyardgrass plant response rating,"barnyardgrass [2]; 125 g ai/ha, visual rating",0
same,Barnyardgrass plant response rating,"barnyardgrass [2]; 500 g ai/ha, visual rating",10
same,Lambsquarters plant response rating (0 to 100 scale),lambsquarters; [13],70
same,"Plant response rating, Lambsquarters",lambsquarters; [14],100
same,Lambsquarters plant response rating,lambsquarters; [11],70
same,Lambsquarters plant response rating,lambsquarters; [12],80
same,Surinam Grass plant response rating (0 to 100 scale),Surinam grass; [13],10
same,"Plant response rating, Surinam Grass",Surinam grass; [14],30
same,Surinam Grass plant response rating,Surinam grass; [11],10
same,Surinam Grass plant response rating,Surinam grass; [12],10
same,Blackgrass plant response rating,blackgrass; 125 g ai/ha,10
same,Blackgrass plant response rating,blackgrass; 500 g ai/ha,20
same,Corn plant response rating (0 to 100 scale),corn; [13],0
same,"Plant response rating, Corn",corn; [14],0
same,Corn plant response rating,corn; [11],0
same,Corn plant response rating,corn; [12],10
same,"Foxtail, Giant plant response rating (0 to 100 scale)",giant foxtail; [13],0
same,"Plant response rating, Foxtail, Giant",giant foxtail; [14],20
same,"Foxtail, Giant plant response rating",giant foxtail; [11],0
same,"Foxtail, Giant plant response rating",giant foxtail; [12],20
same,Morningglory plant response rating (0 to 100 scale),morningglory; [13],0
same,"Plant response rating, Morningglory",morningglory; [14],0
same,Morningglory plant response rating,morningglory; [11],0
same,Morningglory plant response rating,morningglory; [12],20
same,Barnyardgrass plant response rating,"barnyardgrass [3]; 62 g ai/ha, scale 0 to 100 (0 no effect, 100 complete control)",0
same,Barnyardgrass plant response rating,barnyardgrass [3]; [15],0
same,Barnyardgrass plant response rating,barnyardgrass [3]; [16],0
same,"Plant response rating, Barnyardgrass",barnyardgrass [3]; [17],0
same,Cocklebur plant response rating,cocklebur; 125 g ai/ha,0
same,Cocklebur plant response rating,cocklebur; 500 g ai/ha,10
same,"Sedge, Umbrella plant response rating","[4]; 62 g ai/ha, scale 0 to 100",0
same,"Sedge, Umbrella plant response rating",[4]; [15],0
same,"Sedge, Umbrella plant response rating",[4]; [16],30
same,"Plant response rating, Sedge, Umbrella",[4]; [17],50
same,Ducksalad plant response rating,ducksalad [5],90
same,Rice plant response rating (0 to 100 scale),rice [6]; 125 g ai/ha,0
same,"Plant response rating, Rice","rice [6]; 500 g ai/ha, visual rating",10
same,Ducksalad plant response rating,"ducksalad [7]; 62 g ai/ha, scale 0 to 100",0
same,Ducksalad plant response rating,ducksalad [7]; [15],0
same,Ducksalad plant response rating,ducksalad [7]; [16],75
same,"Plant response rating, Ducksalad",ducksalad [7]; [17],90
same,Barnyardgrass plant response rating,barnyardgrass [8],60
same,Rice plant response rating,rice [9],70
same,Rice plant response rating,"rice [10]; 62 g ai/ha, scale 0 to 100",0
same,Rice plant response rating,rice [10]; [15],0
same,Rice plant response rating,rice [10]; [16],0
same,"Plant response rating, Rice",rice [10]; [17],25
same,"Oat, Wild plant response rating",wild oat; [11],10
same,"Oat, Wild plant response rating",wild oat; [12],20
